# Measurements: PubChem BioAssay AID330 (DTP/NCI, 2004)
# Several values for one entry are separate records, joined by “and”; a condition that tells them apart may be missing. Equal values may be shown once. Toxic doses and inconclusive results are not listed.
# System: P388 leukemia ip, CD2F1 mice, survival T/C
# Test: NCI In Vivo Anticancer Drug Screen. Data for tumor model P388 Leukemia (intraperitoneal) in CD2F1 (CDF1) mice
# Settings: endpoint: median survival time, higher = longer survival
# In short: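 Mice carrying the transplanted tumor received test compound or vehicle. Survival was recorded in each group, and the value is the treated-group measurement divided by that of the vehicle-treated control group.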
# [1] = dose: 50.0 mg/kg/injection, schedule: Q01DX005 (ip), vehicle: Klucel (hydroxypropylcellulose) (HPC)
# [2] = dose: 100.0 mg/kg/injection, schedule: Q01DX005 (ip), vehicle: Klucel (hydroxypropylcellulose) (HPC)
# [3] = dose: 200.0 mg/kg/injection, schedule: Q01DX005 (ip), vehicle: Klucel (hydroxypropylcellulose) (HPC)
# [4] = dose: 60.0 mg/kg/injection, schedule: Q01DX005 (ip), vehicle: saline with Tween-80
# [5] = dose: 120.0 mg/kg/injection, schedule: Q01DX005 (ip), vehicle: saline with Tween-80
# [6] = dose: 100.0 mg/kg/injection, schedule: Q01DX009 (ip), vehicle: saline with Tween-80
# [7] = dose: 50.0 mg/kg/injection, schedule: Q01DX005 (ip), vehicle: saline with Tween-80
# [8] = dose: 100.0 mg/kg/injection, schedule: Q01DX005 (ip), vehicle: saline with Tween-80
# [9] = dose: 200.0 mg/kg/injection, schedule: Q01DX005 (ip), vehicle: saline with Tween-80
# [10] = dose: 100.0 mg/kg/injection, schedule: Q04DX003 (ip), vehicle: saline with Tween-80
# [11] = dose: 200.0 mg/kg/injection, schedule: Q04DX003 (ip), vehicle: saline with Tween-80
# [12] = dose: 100.0 mg/kg/injection, schedule: Q01DX009 (ip), vehicle: Klucel (hydroxypropylcellulose) (HPC)
# [13] = dose: 240.0 mg/kg/injection, schedule: Q01DX005 (ip), vehicle: saline with Tween-80
smiles,measurement,setting,value
COC(=O)c1onc2ccc(Cl)cc12,T/C,"dose: 18.75 mg/kg/injection, schedule: Q01DX005 (ip), vehicle: Klucel (hydroxypropylcellulose) (HPC)",99 % of control
same,T/C,"dose: 37.5 mg/kg/injection, schedule: Q01DX005 (ip), vehicle: Klucel (hydroxypropylcellulose) (HPC)",92 % of control
same,T/C,"dose: 75.0 mg/kg/injection, schedule: Q01DX005 (ip), vehicle: Klucel (hydroxypropylcellulose) (HPC)",93 % of control
same,T/C,"dose: 150.0 mg/kg/injection, schedule: Q01DX005 (ip), vehicle: Klucel (hydroxypropylcellulose) (HPC)",95 % of control
Cc1ccc(N=C(c2ccccc2)N(O)c2ccc(Cl)cc2)cc1Cl,T/C,[1],100 % of control
same,T/C,[2],97 % of control
same,T/C,[3],94 % of control
CC1=C2CCCCCC2(O)OC1=O (configuration not stated),T/C,"dose: 6.25 mg/kg/injection, schedule: Q01DX001 (ip), vehicle: saline",109 % of control
same,T/C,"dose: 12.5 mg/kg/injection, schedule: Q01DX001 (ip), vehicle: saline",111 % of control
same,T/C,"dose: 25.0 mg/kg/injection, schedule: Q01DX001 (ip), vehicle: saline",104 % of control and 117 % of control
same,T/C,"dose: 50.0 mg/kg/injection, schedule: Q01DX001 (ip), vehicle: saline",120 % of control
same,T/C,"dose: 100.0 mg/kg/injection, schedule: Q01DX001 (ip), vehicle: saline",100 % of control
O=[N+]([O-])c1ccccc1C(Nc1nncs1)Nc1nncs1,T/C,[1],102 % of control
same,T/C,[2],102 % of control and 121 % of control
CCCCCCNC(=O)C1C(=O)N(CCCCCC)C(=O)/C1=N\N=C(N)N (configuration not stated),T/C,[4],109 % of control
same,T/C,[5],109 % of control
CC(=O)Nc1c(Cl)c(Cl)c2c(c1Cl)C(=O)c1cc(Cl)ccc1-2,T/C,"dose: 25.0 mg/kg/injection, schedule: Q01DX009 (ip), vehicle: saline with Tween-80",90 % of control
same,T/C,"dose: 50.0 mg/kg/injection, schedule: Q01DX009 (ip), vehicle: saline with Tween-80",90 % of control
same,T/C,[6],90 % of control
CC12CC(C(O)(C(F)(F)F)C(F)(F)F)C(=O)C=C1CCC1C2CCC2(C)C(C(=O)CC(O)(C(F)(F)F)C(F)(F)F)CCC12 (configuration not stated),T/C,"dose: 75.0 mg/kg/injection, schedule: Q01DX001 (sc), vehicle: steriod suspending solution",104 % of control
same,T/C,"dose: 150.0 mg/kg/injection, schedule: Q01DX001 (sc), vehicle: steriod suspending solution",122 % of control
same,T/C,"dose: 300.0 mg/kg/injection, schedule: Q01DX001 (sc), vehicle: steriod suspending solution",100 % of control
Cc1ccc(S(=O)(=O)OC2CCN(C)CC2)cc1,T/C,"dose: 25.0 mg/kg/injection, schedule: Q04DX003 (ip), vehicle: saline",113 % of control
same,T/C,"dose: 50.0 mg/kg/injection, schedule: Q04DX003 (ip), vehicle: saline",102 % of control
same,T/C,"dose: 100.0 mg/kg/injection, schedule: Q04DX003 (ip), vehicle: saline",99 % of control
same,T/C,"dose: 200.0 mg/kg/injection, schedule: Q04DX003 (ip), vehicle: saline",104 % of control
Brc1ccc(/C=C/c2ccncc2)cc1,T/C,[7],104 % of control
same,T/C,[8],99 % of control
same,T/C,[9],93 % of control
O=C1/C(=C/c2ccccc2)Cc2ccccc21,T/C,[6],100 % of control
same,T/C,"dose: 200.0 mg/kg/injection, schedule: Q01DX009 (ip), vehicle: saline with Tween-80",100 % of control
same,T/C,"dose: 400.0 mg/kg/injection, schedule: Q01DX009 (ip), vehicle: saline with Tween-80",95 % of control
CNC(=O)N(C)c1cc(N(C)C)nc(OC)n1,T/C,"dose: 4.5 mg/kg/injection, schedule: Q01DX005 (ip), vehicle: saline + alcohol",100 % of control
same,T/C,"dose: 9.0 mg/kg/injection, schedule: Q01DX005 (ip), vehicle: saline + alcohol",90 % of control
same,T/C,"dose: 18.0 mg/kg/injection, schedule: Q01DX005 (ip), vehicle: saline + alcohol",98 % of control
same,T/C,"dose: 36.0 mg/kg/injection, schedule: Q01DX005 (ip), vehicle: saline + alcohol",98 % of control
same,T/C,"dose: 72.0 mg/kg/injection, schedule: Q01DX005 (ip), vehicle: saline + alcohol",101 % of control
[C-]#[O+].[C-]#[O+].[CH3][Sn]([CH3])[c]1ccccc1.[Fe+5].[c-]1[c-][c-][cH-][c-]1,T/C,[10],108 % of control
same,T/C,[11],118 % of control
[N-]=[N+]=CC(=O)CCC(=O)C=[N+]=[N-],T/C,"dose: 0.75 mg/kg/injection, schedule: Q01DX009 (ip), vehicle: other",123 % of control
same,T/C,"dose: 0.78 mg/kg/injection, schedule: Q01DX007 (ip), vehicle: DMSO",101 % of control
same,T/C,"dose: 1.56 mg/kg/injection, schedule: Q01DX007 (ip), vehicle: DMSO",117 % of control
same,T/C,"dose: 3.0 mg/kg/injection, schedule: Q01DX009 (ip), vehicle: other",170 % of control
same,T/C,"dose: 6.0 mg/kg/injection, schedule: Q01DX009 (ip), vehicle: other",104 % of control
same,T/C,"dose: 6.25 mg/kg/injection, schedule: Q01DX007 (ip), vehicle: DMSO",158 % of control
same,T/C,"dose: 12.5 mg/kg/injection, schedule: Q01DX007 (ip), vehicle: DMSO",93 % of control
same,T/C,"dose: 25.0 mg/kg/injection, schedule: Q01DX007 (ip), vehicle: DMSO",93 % of control
C[CH2][Sn](=[O])[CH2]C,T/C,"dose: 25.0 mg/kg/injection, schedule: Q01DX009 (ip), vehicle: saline",154 % of control
CC(=O)Nc1cc(N2CCCCC2)c(N)c2c1C(=O)c1ccccc1C2=O,T/C,[1],102 % of control
same,T/C,[2],97 % of control
same,T/C,[3],98 % of control
CCN(CC)C1CS(=O)(=O)OC2=C1CCCc1ccccc12 (configuration not stated),T/C,"dose: 25.0 mg/kg/injection, schedule: Q01DX009 (ip), vehicle: Klucel (hydroxypropylcellulose) (HPC)",102 % of control
same,T/C,"dose: 50.0 mg/kg/injection, schedule: Q01DX009 (ip), vehicle: Klucel (hydroxypropylcellulose) (HPC)",104 % of control
same,T/C,[12],95 % of control
N#CC(CC[N+](=O)[O-])(c1ccccc1)C(c1ccccc1)[N+](=O)[O-] (configuration not stated),T/C,"dose: 12.5 mg/kg/injection, schedule: Q01DX001 (ip), vehicle: saline with Tween-80",87 % of control
same,T/C,"dose: 25.0 mg/kg/injection, schedule: Q01DX001 (ip), vehicle: saline with Tween-80",96 % of control
O=C(C(=O)c1ccc(C(=O)C(=O)c2ccccc2)cc1)c1ccccc1,T/C,[4],104 % of control
same,T/C,[5],93 % of control
same,T/C,[13],96 % of control
CS(=O)(=O)Nc1nc2ccccc2c(=O)o1,T/C,"dose: 60.0 mg/kg/injection, schedule: Q01DX005 (ip), vehicle: Klucel (hydroxypropylcellulose) (HPC)",107 % of control
same,T/C,"dose: 120.0 mg/kg/injection, schedule: Q01DX005 (ip), vehicle: Klucel (hydroxypropylcellulose) (HPC)",102 % of control
same,T/C,"dose: 240.0 mg/kg/injection, schedule: Q01DX005 (ip), vehicle: Klucel (hydroxypropylcellulose) (HPC)",99 % of control
CCCCCCC(=O)/C=c1\c(CC(=O)CCCCCC)nc2nnc(N)n12,T/C,[4],96 % of control
same,T/C,[5],100 % of control
same,T/C,[13],88 % of control
CCCCCCCCCCSc1n[nH]c(=S)s1,T/C,[7],100 % of control
same,T/C,[8],100 % of control
same,T/C,[9],105 % of control
NC1CCCCCCC1,T/C,"dose: 50.0 mg/kg/injection, schedule: Q01DX005 (ip), vehicle: saline",94 % of control
same,T/C,"dose: 100.0 mg/kg/injection, schedule: Q01DX005 (ip), vehicle: saline",103 % of control
same,T/C,"dose: 200.0 mg/kg/injection, schedule: Q01DX005 (ip), vehicle: saline",117 % of control
S=C(N/N=C/c1ccc(Cl)cc1)Nc1ccccc1,T/C,[12],101 % of control
same,T/C,"dose: 200.0 mg/kg/injection, schedule: Q01DX009 (ip), vehicle: Klucel (hydroxypropylcellulose) (HPC)",100 % of control
same,T/C,"dose: 400.0 mg/kg/injection, schedule: Q01DX009 (ip), vehicle: Klucel (hydroxypropylcellulose) (HPC)",93 % of control
Cc1ccnc(NCCCCCCNc2nccc(C)n2)n1,T/C,[10],87 % of control
same,T/C,[11],98 % of control
same,T/C,"dose: 400.0 mg/kg/injection, schedule: Q04DX003 (ip), vehicle: saline with Tween-80",91 % of control
CN(C)c1ccc(/C=C/C=N/NC(=S)NC23CC4CC(CC(C4)C2)C3)cc1,T/C,[4],89 % of control
same,T/C,[5],86 % of control
NNP(=S)(NN)Oc1ccccc1,T/C,"dose: 6.25 mg/kg/injection, schedule: Q01DX005 (ip), vehicle: Klucel (hydroxypropylcellulose) (HPC)",96 % of control
same,T/C,"dose: 12.5 mg/kg/injection, schedule: Q01DX005 (ip), vehicle: Klucel (hydroxypropylcellulose) (HPC)",114 % of control
same,T/C,"dose: 25.0 mg/kg/injection, schedule: Q01DX005 (ip), vehicle: Klucel (hydroxypropylcellulose) (HPC)",105 % of control
